Experimental data published in patent publication US6737383B1, “Herbicidal oxadiazolidines” (priority 1999, dated 2004).

Columns and labels:
wild oat = test: Test B pre/postemergence wild oat; type: in vivo, Avena fatua
In short: (§1)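 Herbicidal effect was estimated by eye on a ten-point control scale after plants spent twelve to sixteen days in a greenhouse following soil or foliar treatment. Foliar sprays targeted plants at one to four leaves; all doses were formulated in a non-phytotoxic solvent with surfactant.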

bamyardgrass = test: Test B flood test barnyardgrass; type: in vivo, Echinochloa crus-galli
In short: (§2)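 Flood test on plants grown to the 2-leaf stage; treated plants kept in greenhouse twelve to sixteen days, then visually rated against controls on a 0 (no effect) to 10 (complete control) scale.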

rape = test: Test B pre/postemergence rape; type: in vivo, Brassica napus
In short: as §1

sugar beet = test: Test B pre/postemergence sugar beet; type: in vivo, Beta vulgaris
In short: as §1

pigweed = test: Test B pre/postemergence pigweed; type: in vivo, Amaranthus retroflexus
In short: as §1

giant foxtail = test: Test B pre/postemergence giant foxtail; type: in vivo, Setaria faberii
In short: as §1

cocklebur = test: Test B pre/postemergence cocklebur; type: in vivo, Xanthium strumarium
In short: as §1

surinam grass = test: Test B pre/postemergence surinam grass; type: in vivo, Brachiaria decumbens
In short: as §1

soybean = test: Test B pre/postemergence soybean; type: in vivo, Glycine max
In short: as §1

crabgrass = test: Test B pre/postemergence crabgrass; type: in vivo, Digitaria sanguinalis
In short: as §1

smallflower flatsedge = test: Test B flood test smallflower flatsedge; type: in vivo, Cyperus difformis
In short: as §2

corn = test: Test B pre/postemergence corn; type: in vivo, Zea mays
In short: as §1

rice = test: Test B flood test rice; type: in vivo, Oryza sativa
In short: as §2

purple nutsedge = test: Test B pre/postemergence purple nutsedge; type: in vivo, Cyperus rotundus
In short: as §1

duck salad = test: Test B flood test duck salad; type: in vivo, Heteranthera limosa
In short: as §2

morningglory = test: Test B pre/postemergence morningglory; type: in vivo, Ipomoea hederacea
In short: as §1

[1] = Preemergence, Rate 62 g/ha, scale of 0 to 10 where 0 is no effect and 10 is complete control
[2] = Preemergence, Rate 125 g/ha, 0 is no effect, 10 is complete control
[3] = Preemergence, Rate 250 g/ha, scale 0 to 10, 0 is no effect, 10 is complete control
[4] = Preemergence, Rate 500 g/ha, scale 0 to 10 (0 no effect, 10 complete control)
[5] = Rate 250 g/ha, Postemergence, scale 0 to 10, 0 is no effect, 10 is complete control
[6] = Rate 500 g/ha, Postemergence, scale 0 to 10
[7] = Rate 62 g/ha, headed Pre-emergence (flood test species), scale 0 to 10 (0 no effect, 10 complete control)
[8] = Rate 125 g/ha, Pre-emergence, flood test species, scale 0 to 10 where 0 is no effect and 10 is complete control
[9] = Rate 250 g/ha, Pre-emergence, flood-test species, scale 0 to 10, 0 is no effect, 10 is complete control
[10] = Rate 500 g/ha, headed Pre-emergence (flood test species), scale 0 to 10 (0 no effect, 10 complete control)
[11] = Postemergence, Rate 125 g/ha, scale of 0 to 10 where 0 is no effect and 10 is complete control
[12] = Rate 62 g/ha, Postemergence, scale of 0 to 10 where 0 is no effect and 10 is complete control

SMILES: CCN(Cc1ccccc1)C(=O)n1oc(=O)n(C(C)C)c1=O [Compound 166]
- Wild oats plant response rating (wild oat; [1]): 0
- Wild oats plant response rating (0 to 10 scale) (wild oat; [2]): 0
- Wild oats plant response rating (wild oat; [3]): 0
- Wild oats plant response rating (wild oat; [4]): 2
- Plant response rating, Wild oats (wild oat; [5]): 0
- Wild oats plant response rating (wild oat; [6]): 2
- Barnyardgrass plant response rating (bamyardgrass; [7]): 0
- Barnyardgrass plant response rating (bamyardgrass; [8]): 0
- Barnyardgrass plant response rating (bamyardgrass; [9]): 0
- Plant response rating, Barnyardgrass (bamyardgrass; [10]): 0
- Rape plant response rating (rape; [11]): 0
- Rape plant response rating (rape; [1]): 0
- Rape plant response rating (0 to 10 scale) (rape; [2]): 0
- Rape plant response rating (rape; [3]): 0
- Rape plant response rating (rape; [4]): 0
- Rape plant response rating (rape; [12]): 0
- Plant response rating, Rape (rape; [5]): 0
- Sugarbeets plant response rating (sugar beet; [11]): 0
- Sugarbeets plant response rating (sugar beet; [1]): 0
- Sugarbeets plant response rating (0 to 10 scale) (sugar beet; [2]): 0
- Sugarbeets plant response rating (sugar beet; [3]): 0
- Sugarbeets plant response rating (sugar beet; [4]): 0
- Sugarbeets plant response rating (sugar beet; [12]): 0
- Plant response rating, Sugarbeets (sugar beet; [5]): 0
- Sugarbeets plant response rating (sugar beet; [6]): 0
- Redroot pigweed plant response rating (pigweed; [11]): 0
- Redroot pigweed plant response rating (pigweed; [1]): 0
- Redroot pigweed plant response rating (0 to 10 scale) (pigweed; [2]): 0
- Redroot pigweed plant response rating (pigweed; [3]): 0
- Redroot pigweed plant response rating (pigweed; [4]): 0
- Redroot pigweed plant response rating (pigweed; [12]): 0
- Plant response rating, Redroot pigweed (pigweed; [5]): 2
- Redroot pigweed plant response rating (pigweed; [6]): 3
- Giant foxtail plant response rating (giant foxtail; [11]): 0
- Giant foxtail plant response rating (giant foxtail; [1]): 3
- Giant foxtail plant response rating (0 to 10 scale) (giant foxtail; [2]): 5
- Giant foxtail plant response rating (giant foxtail; [3]): 5
- Giant foxtail plant response rating (giant foxtail; [4]): 7
- Giant foxtail plant response rating (giant foxtail; [12]): 0
- Plant response rating, Giant foxtail (giant foxtail; [5]): 1
- Giant foxtail plant response rating (giant foxtail; [6]): 4
- Cocklebur plant response rating (cocklebur; [11]): 0
- Cocklebur plant response rating (cocklebur; [1]): 0
- Cocklebur plant response rating (0 to 10 scale) (cocklebur; [2]): 0
- Cocklebur plant response rating (cocklebur; [3]): 0
- Cocklebur plant response rating (cocklebur; [4]): 0
- Cocklebur plant response rating (cocklebur; [12]): 0
- Plant response rating, Cocklebur (cocklebur; [5]): 0
- Cocklebur plant response rating (cocklebur; [6]): 0
- B. signalgrass plant response rating (surinam grass; [11]): 0
- B. signalgrass plant response rating (surinam grass; [1]): 0
- B. signalgrass plant response rating (0 to 10 scale) (surinam grass; [2]): 0
- B. signalgrass plant response rating (surinam grass; [3]): 0
- B. signalgrass plant response rating (surinam grass; [4]): 4
- B. signalgrass plant response rating (surinam grass; [12]): 0
- Plant response rating, B. signalgrass (surinam grass; [5]): 0
- B. signalgrass plant response rating (surinam grass; Rate 500 g/ha, Postemergence, scale 0 to 10, 0 no effect, 10 complete control): 0
- Soybean plant response rating (soybean; [11]): 0
- Soybean plant response rating (soybean; [1]): 0
- Soybean plant response rating (0 to 10 scale) (soybean; [2]): 0
- Soybean plant response rating (soybean; [3]): 0
- Soybean plant response rating (soybean; [4]): 2
- Soybean plant response rating (soybean; [12]): 0
- Plant response rating, Soybean (soybean; [5]): 2
- Soybean plant response rating (soybean; [6]): 3
- Crabgrass plant response rating (crabgrass; [11]): 1
- Crabgrass plant response rating (crabgrass; [1]): 4
- Crabgrass plant response rating (0 to 10 scale) (crabgrass; [2]): 4
- Crabgrass plant response rating (crabgrass; [3]): 7
- Crabgrass plant response rating (crabgrass; [4]): 7
- Crabgrass plant response rating (crabgrass; [12]): 0
- Plant response rating, Crabgrass (crabgrass; [5]): 3
- Crabgrass plant response rating (crabgrass; [6]): 4
- S. Flatsedge plant response rating (smallflower flatsedge; [7]): 0
- S. Flatsedge plant response rating (smallflower flatsedge; [8]): 0
- S. Flatsedge plant response rating (smallflower flatsedge; [9]): 0
- S. Flatsedge plant response rating (smallflower flatsedge; Rate 500 g/ha, Pre-emergence, flood test species, scale 0 to 10 (0 no effect, 10 complete control)): 0
- Corn plant response rating (corn; [11]): 0
- Corn plant response rating (corn; [1]): 0
- Corn plant response rating (0 to 10 scale) (corn; [2]): 0
- Corn plant response rating (corn; [3]): 0
- Corn plant response rating (corn; [4]): 0
- Corn plant response rating (corn; [12]): 0
- Plant response rating, Corn (corn; [5]): 0
- Corn plant response rating (corn; [6]): 0
- Rice plant response rating (rice; [7]): 0
- Rice plant response rating (rice; [8]): 0
- Rice plant response rating (rice; [9]): 0
- Plant response rating, Rice (rice; [10]): 0
- Nutsedge plant response rating (purple nutsedge; [11]): 0
- Nutsedge plant response rating (0 to 10 scale) (purple nutsedge; [2]): 0
- Nutsedge plant response rating (purple nutsedge; [3]): 0
- Nutsedge plant response rating (purple nutsedge; [4]): 0
- Nutsedge plant response rating (purple nutsedge; [12]): 0
- Plant response rating, Nutsedge (purple nutsedge; [5]): 0
- Nutsedge plant response rating (purple nutsedge; [6]): 0
- Ducksalad plant response rating (duck salad; [7]): 0
- Ducksalad plant response rating (duck salad; [8]): 0
- Ducksalad plant response rating (duck salad; [9]): 0
- Plant response rating, Ducksalad (duck salad; [10]): 0
- Morningglory plant response rating (morningglory; [11]): 1
- Morningglory plant response rating (morningglory; [1]): 0
- Morningglory plant response rating (0 to 10 scale) (morningglory; [2]): 0
- Morningglory plant response rating (morningglory; [3]): 0
- Morningglory plant response rating (morningglory; [4]): 0
- Morningglory plant response rating (morningglory; [12]): 1
- Plant response rating, Morningglory (morningglory; [5]): 2
- Morningglory plant response rating (morningglory; [6]): 2
